Read-outs that look alike come from different tables or passages of the source.
Tests used:
[1] = system: human constitutive proteasome and immunoproteasome catalytic subunits; assay: BMV037 active site probe competition, purified human 20S proteasomes; type: biochemical; details: for subunit specificity by BMV037 probe labeling, human constitutive proteasome and immunoproteasome: compounds 1 h, probe 2 h
[2] = system: HCT116 cells; assay: HCT116 cellular toxicity (CellTiter-Glo, 72 h); type: cell-based, human; details: for HCT116 LD50 (72 h): 72 h incubation, mean ± SEM or half range, 2–4 experiments; for HCT116 LD50 (72-h): supplement CSV
Description: HCT-116 and HepG2 cells were obtained from the American Type Culture Collection and maintained as recommended by the supplier. Cells were cultured in the ATCC-formulated McCoy’s 5A medium or DMEM (Life Technologies, CA), supplemented with fetal bovine serum to a final concentration of 9–10%, and incubated at 37 °C in an atmosphere of 95% air and 5% CO2. Cellular toxicity assays were performed using Promega’s CellTiter-Glo assay system. Varying concentrations of the test compounds in 5% DMSO/95% PBS were dispensed into a 384-well plate and cells added to each well. The plates were incubated at 37 °C for 72 h, and the CellTiter-Glo assay to assess cell viability was performed as described by the manufacturer (Promega).
For human cell line activity assays, cellular toxicity assays were performed as described previously.[23],[48]

[3] = system: HepG2 cells; assay: HepG2 cellular toxicity (CellTiter-Glo, 72 h); type: cell-based, human; details: for HepG2 LD50 (72 h): 72 h incubation, mean ± SEM or half range, 2–4 experiments; for HepG2 LD50( 72-h): supplement CSV
[4] = system: P. falciparum Cam3.II^Rev; assay: 3 h pulsed exposure viability assay, K13 wild-type revertant early rings; type: cell-based, Plasmodium falciparum; details: for Cam3.II^Rev LD50 (3 h): early ring (1–3 h p.i.), 3 h pulse, viability in next cycle, mean ± SEM, n=3; for Cam3.IIRev LD50 (3-h): supplement CSV
Description: (§1) For standard assays of antiplasmodial activity, sorbitol-treated ring stage parasites were incubated with the drugs for 72 h and viability was assessed in the second cycle.[12] Drug pulse assays were performed as described previously.[47] For short pulse assays, tightly synchronized early ring stage parasites (1–3 h after invasion) at 0.2% hematocrit and 1–2% parasitemia were subjected to 3 h drug pulse at 37 °C and returned to culture until parasites reached trophozoite stage of the following cycle. Cells were then stained with 2 μM Syto-61 (Thermo Fisher Scientific), and their fluorescence was measured by flow cytometry (FACSCanto II cytometer; Becton Dickinson). Data were gated and analyzed using FCS Express software (version 3) to determine parasitemia of each sample. Viability represents the parasitemia normalized to untreated and “kill treated” controls, where “kill treated” refers to samples treated with 2 μM DHA for 48–72 h. Interactions between DHA and MPI-1 or MPI-4 against the K13 mutant (DHA resistant) Cam3.II P. falciparum strain, exposed to a 3 h pulsed treatment, were determined at 4 h after invasion as described previously.[12]

[5] = system: Pf20S proteasome β1, β2, β5 subunits; type: biochemical, P. falciparum
[6] = system: P. falciparum Cam3.II^R539T; assay: 3 h pulsed exposure viability assay, K13 mutant early rings; type: cell-based, Plasmodium falciparum; details: for Cam3.II^R539T LD50 (3 h): early ring (1–3 h p.i.), 3 h pulse, viability in next cycle, mean ± SEM, n=3; for Cam3.IIR539T LD50 (3-h): supplement CSV
Description: as §1

[7] = system: bortezomib-resistant 3D7 B1 line (clone B1a); assay: 72 h viability assay, bortezomib-resistant B1 line / clone B1a; type: cell-based, Plasmodium falciparum; details: for bortezomib-resistant 3D7 B1 line LD50 (72 h): ring stage; for Bortezomib-resistant3D7 B1 LD50 (72-h): supplement CSV
Description: as §1
Prior to selection, an aliquot of the parental line was stocked as a reference for subsequent whole genome sequencing analysis. Several independent clones of P. falciparum 3D7 parasite line were cultured in Petri dishes exposed to increasing drug pressure for ∼30 weeks. Parasites were cloned by limiting dilution. For parasite extraction and genomic DNA isolation, cultures were scaled up to at least 4–5% parasitaemia, lysed in saponin, and genomic DNA was isolated using ISOLATE II Genomic DNA kit (Bioline). DNA libraries for each gDNA sample were prepared for sequencing using the Nextera XT kit as described previously.[50] Libraries were clustered and run on an Illumina HiSeq 2500 using the RapidRun mode, sequencing 100 base pairs in depth on either end. Paired-end reads were either aligned to the P. falciparum 3D7 reference genome (PlasmoDB version 13.0).

[8] = system: Pf20S proteasome subunits of bortezomib-resistant parasites; assay: BMV037 active site probe competition, bortezomib-resistant parasites; type: biochemical, P. falciparum; details: compounds 1 h
Description: Figure 3 Active site probe analysis of the proteasome subunit specificity of the selected compounds in 3D7 parent and bortezomib-resistant parasites. Purified Pf20S proteasome from wild-type 3D7 (A) and bortezomib-resistant (C) parasites or wild-type 3D7 (B) and bortezomib-resistant (D) trophozoite-infected erythrocytes were treated with compounds for 1 h, and activity-based probe (BMV037) labeling was performed (postlysis for the trophozoite samples). Fluorescent gel scans reveal subunits that remain active after treatment.
P. falciparum culture, purified Pf20S proteasomes, human constitutive proteasomes, or immunoproteasomes (Boston Biochem) were incubated with test compounds at 37 °C for 1 h. Treated parasite lysates (10 μg), Pf20S proteasomes (80 nM), human constitutive proteasomes (20 nM), or immuno-20S proteasomes (20 nM) were labeled with BMV037 (10 μM) at 37 °C for 2 h. Samples were mixed with SDS loading buffer and heated at 95 °C for 5 min. Samples for P. falciparum and human immuno-20S were run on 4–12% Bis-Tris acrylamide gels using MES SDS running buffer (Thermo Fisher Scientific). Human constitutive 20S samples were run on a 10% Bis-Tris acrylamide gel using MOPS SDS running buffer (Thermo Fisher Scientific). Gels were imaged at the Cy5 channel on a Gel Doc XR+ Documentation System (Bio-Rad) or an Amersham Typhoon Trio imager (GE Healthcare Life Sciences).

[9] = system: P. falciparum 3D7 parasites; assay: Standard 72 h antiplasmodial viability assay, 3D7; type: cell-based, Plasmodium falciparum; details: for Pf3D7 LD50 (72 h): sorbitol-treated ring stage, viability in next cycle (~72 h); for Pf3D7 LD50 (72-h): supplement CSV
Description: P. falciparum parasites used in this study were propagated in O+ human erythrocytes (Australian Red Cross Blood Service) in RPMI-1640, supplemented with GlutaMAX, 25 mM HEPES (Thermo Fisher Scientific), 5% (v/v) human serum (Australian Red Cross Blood Service), 0.25% (w/v) AlbuMAX II (Thermo Fisher Scientific), 10 μM D-glucose, 22 μg/mL gentamycin (Sigma-Aldrich), and 0.5 mM hypoxanthine (Sigma-Aldrich) and incubated at 37 °C in an atmosphere of 1% O2, 5% CO2, and 94% N2. Cultures were monitored by Giemsa staining of methanol-fixed blood smears. Culture medium was replaced at least every 48 h, and parasitemia was maintained below 10% to ensure health of cultures. The GFP-DD reporter strain was kindly provided by Dr. Paul Gilson, Dr. Brendan Crabb, and Dr. Mauro F. Azevedo (Burnet Institute).
as §1

[10] = compounds 1 h, purified Pf20S or infected erythrocytes

CC(=O)N1CCC[C@@H]1C(=O)N[C@@H](C)C(=O)N[C@@H](Cc1ccccc1)B(O)O [MPI-1]
binding of the BMV037 probe to β5c after treatment ([1]; 10 μM): did not completely ablate binding of the probe to β5c
subunit specificity by BMV037 probe labeling, human constitutive proteasome and immunoproteasome [1]: preferentially targeted the β5 subunits
HCT116 LD50 (72 h) [2]: 0.79 ± 0.01 µM
HCT116 LD50 (72-h) [2]: 0.79 ± 0.01 µM
HepG2 LD50 (72 h) [3]: 6.7 ± 3.2 µM
HepG2 LD50( 72-h) [3]: 6.7 ± 3.2 µM
Cam3.II^Rev LD50 (3 h) [4]: 0.9 ± 0.1 µM
Cam3.IIRev LD50 (3-h) [4]: 0.9 ± 0.1 µM
subunit specificity by BMV037 probe labeling, wild-type 3D7 [5, 10]: preferentially inhibited binding of the probe to the β5 subunit
Cam3.II^R539T LD50 (3 h) [6]: 0.82 ± 0.06 µM
Cam3.IIR539T LD50 (3-h) [6]: 0.82 ± 0.06 µM
bortezomib-resistant 3D7 B1 line LD50 (72 h) ([7]; mean ± SEM, n=3): 0.23 ± 0.04 µM
Bortezomib-resistant3D7 B1 LD50 (72-h) [7]: 0.23 ± 0.04 µM
BMV037 labeling of the β5 active site in bortezomib-resistant parasites [8]: still able to prevent BMV037 labeling of the β5 active site
Pf3D7 LD50 (72 h) ([9]; mean ± SEM, n=3): 0.12 ± 0.01 µM
Pf3D7 LD50 (72-h) [9]: 0.12 ± 0.01 µM

CC(C)C[C@H](NC(=O)[C@H](Cc1ccccc1)NC(=O)Cc1ccc(O)cc1)B(O)O [MPI-4]
subunit specificity by BMV037 probe labeling, human constitutive proteasome and immunoproteasome [1]: preferential inhibition of the β1 and β5 subunits
HCT116 LD50 (72 h) [2]: 0.025 ± 0.014 µM
HCT116 LD50 (72-h) [2]: 0.025 ± 0.014 µM
HepG2 LD50 (72 h) [3]: 0.04 ± 0.01 µM
HepG2 LD50( 72-h) [3]: 0.04 ± 0.01 µM
Cam3.II^Rev LD50 (3 h) [4]: 0.18 ± 0.02 µM
Cam3.IIRev LD50 (3-h) [4]: 0.18 ± 0.02 µM
subunit specificity by BMV037 probe labeling, wild-type 3D7 [5, 10]: inhibited both β2 and β5 activities
Cam3.II^R539T LD50 (3 h) [6]: 0.16 ± 0.01 µM
Cam3.IIR539T LD50 (3-h) [6]: 0.16 ± 0.01 µM
cross-resistance of the bortezomib-resistant parasite line (B1) ([7]; growth inhibition, versus 3D7): retained sensitivity
bortezomib-resistant 3D7 B1 line LD50 (72 h) ([7]; mean ± SEM, n=3): 0.077 ± 0.001 µM
Bortezomib-resistant3D7 B1 LD50 (72-h) [7]: 0.077 ± 0.001 µM
BMV037 labeling of the β2 active site in bortezomib-resistant parasites [8]: completely inhibit BMV037 labeling of the β2 active site
BMV037 labeling of the β5 active site in bortezomib-resistant parasites [8]: did not prevent labeling of the β5 active site
Pf3D7 LD50 (72 h) ([9]; mean ± SEM, n=3): 0.061 ± 0.007 µM
Pf3D7 LD50 (72-h) [9]: 0.061 ± 0.007 µM

CC(C)C[C@H](NC(=O)[C@H](Cc1ccccc1)NC(=O)c1cnccn1)B(O)O [bortezomib, reference compound]
subunit specificity by BMV037 probe labeling, human constitutive proteasome and immunoproteasome [1]: preferentially inhibits the β1 and β5 subunits
HCT116 LD50 (72 h) [2]: 0.006 ± 0.001 µM
HCT116 LD50 (72-h) [2]: 0.006 ± 0.001 µM
HepG2 LD50 (72 h) [3]: 0.03 ± 0.02 µM
HepG2 LD50( 72-h) [3]: 0.03 ± 0.02 µM
Cam3.II^Rev LD50 (3 h) [4]: 0.18 ± 0.06 µM
Cam3.IIRev LD50 (3-h) [4]: 0.18 ± 0.06 µM
subunit specificity by BMV037 probe labeling, wild-type 3D7 [5]: preferential inhibition of the β5 activity
Cam3.II^R539T LD50 (3 h) [6]: 0.12 ± 0.02 µM
Cam3.IIR539T LD50 (3-h) [6]: 0.12 ± 0.02 µM
LD50 (72 h), 3D7 B1a ([7]; bortezomib, resistant clone B1a, mean ± SEM, n=3): 1.3 ± 0.1 µM
Bortezomib-resistant3D7 B1 LD50 (72-h) [7]: 1.3 ± 0.1 µM
BMV037 competition profile in bortezomib-resistant parasites [8]: unable to prevent binding of the probe
IC50 ([9]; Plasmodium falciparum, 3D7, dose–response profiles, n = 3, read-out: 50% viability inhibitory concentration against 3D7 parasites): ~60 nM
LD50 (72 h), 3D7 parent ([9]; bortezomib, wild-type parent clone, mean ± SEM, n=3): 0.06 ± 0.01 µM
Pf3D7 LD50 (72 h) ([9]; mean ± SEM, n=3): 0.06 ± 0.01 µM
Pf3D7 LD50 (72-h) [9]: 0.06 ± 0.01 µM

Source: PMC6257627, “Target Validation and Identification of Novel Boronate Inhibitors of the Plasmodium falciparum Proteasome” (Journal of Medicinal Chemistry, 2018)
